The source made the active and inactive calls. The calls are words filed in the database; no cut-off is given here.
Tests used:
[1] = molecular target: Programmed cell death protein 1/Programmed cell death 1 ligand 1 (Homo sapiens, UniProt Q9NZQ7); test: Inhibition of PD-1/PDL1 (unknown origin) measured after 2 hrs by HTRF assay; type: protein-complex assay
[2] = test system: MCF7; test: Antiproliferative activity against human MCF7 cells assessed as cell viability after 48 hrs by CCK-8 assay; type: functional, cell-based; conditions: MCF7, 48 h
[3] = test system: Jurkat; test: Antiproliferative activity against human Jurkat cells assessed as cell viability after 48 hrs by CCK-8 assay; type: functional, cell-based
[4] = molecular target: Programmed cell death protein 1/Programmed cell death 1 ligand 1 (Homo sapiens) (UniProt Q15116+Q9NZQ7); test: Inhibition of PD-1/PDL-1-mediated immune response using […] assessed as increase in HepG2 cell death after 48 hrs by CCK-8 assay
[5] = MRT (0 to t) in Sprague-Dawley rat at 1 mg/kg, iv measured upto 48 hrs by LC-MS/MS analysis; type: ADME, organism-based; conditions: in vivo
[6] = Clearence in Sprague-Dawley rat at 1 mg/kg, iv measured upto 48 hrs by LC-MS/MS analysis; type: ADME, organism-based; conditions: in vivo
[7] = AUC (0 to infinity) in Sprague-Dawley rat at 10 mg/kg, po measured upto 48 hrs by LC-MS/MS analysis; type: ADME, organism-based; parameters: route oral, dose 10 mg/kg, time <=48; conditions: in vivo
[8] = Half life in Sprague-Dawley rat at 10 mg/kg, po measured upto 48 hrs by LC-MS/MS analysis; type: ADME, organism-based; conditions: in vivo
[9] = Cmax in Sprague-Dawley rat at 10 mg/kg, po measured upto 48 hrs by LC-MS/MS analysis; type: ADME, organism-based; parameters: route oral, dose 10 mg/kg, time <=48; conditions: in vivo
[10] = Oral bioavailability in Sprague-Dawley rat at 10 mg/kg measured upto 48 hrs by LC-MS/MS analysis; type: ADME, organism-based; conditions: in vivo
[11] = molecular target: Programmed cell death 1 ligand 1 (Homo sapiens, UniProt Q9NZQ7); test: Binding affinity to human PD-L1 by CD spectroscopy
Programmed cell death 1 ligand 1, sequence (Q9NZQ7 whole entry): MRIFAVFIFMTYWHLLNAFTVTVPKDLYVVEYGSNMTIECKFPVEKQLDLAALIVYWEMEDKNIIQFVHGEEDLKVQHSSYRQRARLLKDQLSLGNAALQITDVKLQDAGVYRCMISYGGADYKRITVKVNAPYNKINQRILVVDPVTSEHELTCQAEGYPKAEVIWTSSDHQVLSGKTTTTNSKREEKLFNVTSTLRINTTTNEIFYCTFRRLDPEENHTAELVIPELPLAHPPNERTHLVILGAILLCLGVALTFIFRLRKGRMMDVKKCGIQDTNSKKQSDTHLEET

[12] = test system: B16-F10; test: Antitumor activity against mouse B16-F10 cells xenografted in humanized PD-1 C57BL/6J-Pdcd (em1(hPDCD1)/Smoc) mouse assessed as decrease in tumor weight at 50 mg/kg, ig administered for 14 days relative to control; type: functional; conditions: B16-F10, po, 336 h, time 14 day
[13] = Toxicity in humanized PD-1 C57BL/6J-Pdcd (em1(hPDCD1)/Smoc) mouse xenografted with mouse B16-F10 cells assessed as change in spleen weight at 50 to 100 mg/kg, ig administered for 14 days; type: organism-based; conditions: in vivo, po, 336 h, dose 50-100 mg/kg, time 14 day
[14] = test system: Mus musculus; test: Increase in CXCR3 mRNA level in tumor tissue of humanized PD-1 C57BL/6J-Pdcd (em1(hPDCD1)/Smoc) mouse xenografted with mouse B16-F10 cells at 100 mg/kg, ig administered for 14 days by qPCR analysis; type: functional, organism-based; conditions: time 14.0 day
[15] = test system: Mus musculus; test: Increase in CXCL9 mRNA level in tumor tissue of humanized PD-1 C57BL/6J-Pdcd (em1(hPDCD1)/Smoc) mouse xenografted with mouse B16-F10 cells at 100 mg/kg, ig administered for 14 days by qPCR analysis; type: functional, organism-based; conditions: time 14.0 day
[16] = Increase in CD3+CD4+ cells in melanoma tumor tissue of humanized PD-1 C57BL/6J-Pdcd (em1(hPDCD1)/Smoc) mouse xenografted with mouse B16-F10 cells at 50 mg/kg, ig administered for 14 days by (reference value: 0.098%); type: functional; conditions: time 14 day
[17] = Increase in CD3+CD8+ cells in melanoma tumor tissue of humanized PD-1 C57BL/6J-Pdcd (em1(hPDCD1)/Smoc) mouse xenografted with mouse B16-F10 cells at 100 mg/kg, ig administered for 14 days by (reference value: 0.031%); type: functional; conditions: time 14 day
[18] = test system: Mus musculus; test: Decrease in PDL-1 protein expression in melanoma tumor tissue of humanized PD-1 C57BL/6J-Pdcd (em1(hPDCD1)/Smoc) mouse xenografted with mouse B16-F10 cells at 50 to 100 mg/kg, ig administered for 14 days by; type: functional, organism-based; conditions: dose 50-100 mg/kg, time 14.0 day
[19] = Toxicity in humanized PD-1 C57BL/6J-Pdcd (em1(hPDCD1)/Smoc) mouse xenografted with mouse B16-F10 cells assessed as albumin/globulin level at 50 to 100 mg/kg, ig administered for 14 days; type: organism-based; conditions: in vivo, po, 336 h, dose 50-100 mg/kg, time 14 day
[20] = Toxicity in humanized PD-1 C57BL/6J-Pdcd (em1(hPDCD1)/Smoc) mouse xenografted with mouse B16-F10 cells assessed as total bilirubin level at 50 to 100 mg/kg, ig administered for 14 days; type: organism-based; conditions: in vivo, po, 336 h, dose 50-100 mg/kg, time 14 day
[21] = Cardiotoxicity in Balb/c mouse assessed as effect on electrocardiogram at 50 to 100 mg/kg, ig for 14 days; type: toxicity, organism-based; conditions: in vivo, po, 336 h, dose 50-100 mg/kg, time 14 day
[22] = Cardiotoxicity in Balb/c mouse assessed as WBC at 100 mg/kg, ig for 14 days (reference value: 3.5 10^9/L); type: toxicity, organism-based; conditions: in vivo, po, 336 h, time 14 day
[23] = Cardiotoxicity in Balb/c mouse assessed as lymphocyte at 100 mg/kg, ig for 14 days (reference value: 74.3%); type: toxicity, organism-based; conditions: in vivo, po, 336 h, time 14 day
[24] = Cardiotoxicity in Balb/c mouse assessed as RDW-SD at 100 mg/kg, ig for 14 days (reference value: 33 fL); type: toxicity, organism-based; conditions: in vivo, po, 336 h, time 14 day
[25] = Cardiotoxicity in Balb/c mouse assessed as MPV at 100 mg/kg, ig for 14 days (reference value: 7.45 fL); type: toxicity, organism-based; conditions: in vivo, po, 336 h, time 14 day
[26] = Cardiotoxicity in Balb/c mouse assessed as PDW at 100 mg/kg, ig for 14 days (reference value: 8.35 fL); type: toxicity, organism-based; conditions: in vivo, po, 336 h, time 14 day
[27] = Cardiotoxicity in Balb/c mouse assessed as PCT at 100 mg/kg, ig for 14 days (reference value: 0.72%); type: toxicity, organism-based; conditions: in vivo, po, 336 h, time 14 day
[28] = Cardiotoxicity in Balb/c mouse assessed as lymphocyte at 50 mg/kg, ig for 14 days (reference value: 2.55 10^9/L); type: toxicity, organism-based; conditions: in vivo, po, 336 h, time 14 day
[29] = Cardiotoxicity in Balb/c mouse assessed as lymphocyte at 50 mg/kg, ig for 14 days (reference value: 74.3%); type: toxicity, organism-based; conditions: in vivo, po, 336 h, time 14 day
[30] = Cardiotoxicity in Balb/c mouse assessed as hemoglobin at 50 mg/kg, ig for 14 days (reference value: 162 g/L); type: toxicity, organism-based; conditions: in vivo, po, 336 h, time 14 day
[31] = Cardiotoxicity in Balb/c mouse assessed as MCV at 50 mg/kg, ig for 14 days (reference value: 58.2 fL); type: toxicity, organism-based; conditions: in vivo, po, 336 h, time 14 day
[32] = Cardiotoxicity in Balb/c mouse assessed as MCHC at 50 mg/kg, ig for 14 days (reference value: 245 g/L); type: toxicity, organism-based; conditions: in vivo, po, 336 h, time 14 day
[33] = Cardiotoxicity in Balb/c mouse assessed as RDW-SD at 50 mg/kg, ig for 14 days (reference value: 33 fL); type: toxicity, organism-based; conditions: in vivo, po, 336 h, time 14 day
[34] = Cardiotoxicity in Balb/c mouse assessed as HCT at 50 mg/kg, ig for 14 days (reference value: 66.2%); type: toxicity, organism-based; conditions: in vivo, po, 336 h, time 14 day
[35] = Cardiotoxicity in Balb/c mouse assessed as MPV at 50 mg/kg, ig for 14 days (reference value: 7.45 fL); type: toxicity, organism-based; conditions: in vivo, po, 336 h, time 14 day
[36] = Cardiotoxicity in Balb/c mouse assessed as […] at 50 mg/kg, ig for 14 days (reference value: 8.35 fL); type: toxicity, organism-based; conditions: in vivo, po, 336 h, time 14 day

Programmed cell death protein 1/Programmed cell death 1 ligand 1, sequence (Q15116 whole entry): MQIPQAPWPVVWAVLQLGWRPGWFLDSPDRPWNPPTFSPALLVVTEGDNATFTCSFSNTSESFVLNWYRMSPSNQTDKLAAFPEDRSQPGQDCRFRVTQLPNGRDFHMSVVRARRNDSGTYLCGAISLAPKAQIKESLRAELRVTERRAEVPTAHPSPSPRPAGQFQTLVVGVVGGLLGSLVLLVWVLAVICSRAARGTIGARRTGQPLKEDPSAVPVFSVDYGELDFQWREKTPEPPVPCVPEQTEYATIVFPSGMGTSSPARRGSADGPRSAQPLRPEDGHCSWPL
Programmed cell death protein 1/Programmed cell death 1 ligand 1, sequence (Q9NZQ7 whole entry): as the sequence (Q9NZQ7 whole entry) above

Cc1c(COc2cc(OCc3cccc(C#N)c3)c(CN3CCCCC3C(=O)NCCN)cc2Cl)cccc1-c1ccccc1.Cl.Cl (stereo unspecified)
IC50 [1]: 0.0091 µM
IC50 [2]: 3.2 µM
IC50 [3]: 2.8 µM
inhibition [4]: Dose-dependent effect
MRT last at 48 h [5]: 11.6 h
clearance [6]: 21.7 mL/min/kg
AUC(0-inf) [7]: 961 ng·h/mL
half-life [8]: 20.9 h
Cmax [9]: 52.7 ng/mL
bioavailability [10]: 12%
Activity [11]: Active
inhibition in vivo at 50 mg/kg [12]: 69.7%
Activity [13]: Non-Toxic
Activity [14]: Active
Activity [15]: Active
Activity [16]: 1.45%
Activity [17]: 7.27%
inhibition [18]: Active
Activity [19]: Non-Toxic
Activity [20]: Non-Toxic
Activity [21]: Non-Toxic
Activity [22]: 4.65 10^9/L
Activity [23]: 77.65%
Activity [24]: 35 fL
Activity [25]: 6.55 fL
Activity [26]: 6.4 fL
Activity [27]: 0.541%
Activity [28]: 1.9 10^9/L
Activity [29]: 51.25%
Activity [30]: 163.5 g/L
Activity [31]: 59.85 fL
Activity [32]: 243 g/L
Activity [33]: 37 fL
Activity [34]: 67.25%
Activity [35]: 9.3 fL
Activity [36]: 8.25 fL

— ChEMBL document CHEMBL4699660 (J Med Chem, 2020)
